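Five compound concentrations were applied to cells in 96-well plates for 48 hours; endpoints were derived by simple linear interpolation of the resulting dose-response curve. At the GI50, growth is halved.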 Calls of active or inactive are those of the source. Cut-off read from the data, not from the text of the source: active = GI50 up to about 1.1 µM and inactive = higher.
Tests used:
Experiment in all cases: DTP human tumour cell line panel, 48 h
COLO 205 = system: COLO 205
MCF7 = system: MCF7
IGROV-1 = system: IGROV-1
EKVX = system: EKVX
TK-10 = system: TK-10
LOX IMVI = system: LOX IMVI
M14 = system: M14
RXF 393 = system: RXF 393
HOP-92 = system: HOP-92
SK-MEL-28 = system: SK-MEL-28
KM12 = system: KM12
NCI-H226 = system: NCI-H226
SW-620 = system: SW-620
SK-MEL-2 = system: SK-MEL-2
CAKI-1 = system: CAKI-1
SK-MEL-5 = system: SK-MEL-5
SNB-19 = system: SNB-19
HL-60 = system: HL-60
M19-MEL = system: M19-MEL
HCT-15 = system: HCT-15

SMILES | GI50 (COLO 205) | GI50 (MCF7) | GI50 (IGROV-1) | GI50 (EKVX) | GI50 (TK-10) | GI50 (LOX IMVI) | GI50 (M14) | GI50 (RXF 393) | GI50 (HOP-92) | GI50 (SK-MEL-28) | GI50 (KM12) | GI50 (NCI-H226) | GI50 (SW-620) | GI50 (SK-MEL-2) | GI50 (CAKI-1) | GI50 (SK-MEL-5) | GI50 (SNB-19) | GI50 (HL-60) | GI50 (M19-MEL) | GI50 (HCT-15) [µM]
Cc1cc(C)c(S(=O)(=O)N(CCCCCN)OCCCN)c(C)c1 | 20.2 µM (inactive) | 17.1 µM (inactive) | 13.9 µM (inactive) | 15.9 µM (inactive) | 17 µM (inactive) | 17.7 µM (inactive) | 18.3 µM (inactive) | 10.3 µM (inactive) | 15.9 µM (inactive) | 16.9 µM (inactive) | 19 µM (inactive) | 14.8 µM (inactive) | 19 µM (inactive) | 17.9 µM (inactive) | 17.4 µM (inactive) | 16.3 µM (inactive) | 20.3 µM (inactive) | – | – | –
COc1ccc(N2C(Cl)C(=O)C2c2c[nH]c3ccccc23)cc1 (stereo not drawn) | > 100 µM (inactive) | – | > 100 µM (inactive) | > 100 µM (inactive) | > 100 µM (inactive) | – | > 100 µM (inactive) | > 100 µM (inactive) | 28.3 µM (inactive) | > 100 µM (inactive) | > 100 µM (inactive) | – | > 100 µM (inactive) | > 100 µM (inactive) | – | > 100 µM (inactive) | 91.8 µM (inactive) | > 100 µM (inactive) | > 100 µM (inactive) | –
CC(=O)c1c(-c2ccco2)c(C#N)c(=S)n(C2OC(CO)C(O)C(O)C2O)c1C (stereo not drawn) | > 100 µM (inactive) | 88.5 µM (inactive) | > 100 µM (inactive) | 82 µM (inactive) | > 100 µM (inactive) | 56.6 µM (inactive) | 72.9 µM (inactive) | > 100 µM (inactive) | – | 87.7 µM (inactive) | > 100 µM (inactive) | – | > 100 µM (inactive) | – | > 100 µM (inactive) | 60.3 µM (inactive) | 83.6 µM (inactive) | 50.9 µM (inactive) | – | > 100
O=C(CCl)NNC1=Nc2ccc(Cl)cc2SC1 | 1.94 µM (inactive) | 3.01 µM (inactive) | 1.95 µM (inactive) | 2.07 µM (inactive) | – | 1.14 µM (inactive) | – | 1.9 µM (inactive) | 1.63 µM (inactive) | 2.03 µM (inactive) | 5.02 µM (inactive) | 2.61 µM (inactive) | 2.04 µM (inactive) | 3.66 µM (inactive) | – | 2.36 µM (inactive) | 13.5 µM (inactive) | 1.55 µM (inactive) | 2.18 µM (inactive) | 1.81
CN(C(=O)c1ccccc1)c1ccc2c(c1)C(=O)c1ccccc1C2=O | > 100 µM (inactive) | – | > 100 µM (inactive) | > 100 µM (inactive) | > 100 µM (inactive) | > 100 µM (inactive) | > 100 µM (inactive) | > 100 µM (inactive) | > 100 µM (inactive) | > 100 µM (inactive) | > 100 µM (inactive) | > 100 µM (inactive) | > 100 µM (inactive) | > 100 µM (inactive) | > 100 µM (inactive) | – | – | – | > 100 µM (inactive) | > 100
CCCCCn1cc2c3c(cccc31)C1C=C(C)CN(C)[C@@H]1C2.Cc1ccc(C(=O)OC(C(=O)O)C(OC(=O)c2ccc(C)cc2)C(=O)O)cc1 (stereo not drawn) | 3.38 µM (inactive) | 4.03 µM (inactive) | 8.22 µM (inactive) | 10.8 µM (inactive) | – | 6.47 µM (inactive) | – | 5.78 µM (inactive) | 1.6 µM (inactive) | 6.93 µM (inactive) | 5.92 µM (inactive) | 9.79 µM (inactive) | 4.16 µM (inactive) | 9.18 µM (inactive) | 5.69 µM (inactive) | 3.06 µM (inactive) | 10.4 µM (inactive) | 1.35 µM (inactive) | 4.48 µM (inactive) | 4.58
CC1(C(=O)O)CCC(C(=O)O)C(C)(C)O1 (stereo not drawn) | > 100 µM (inactive) | > 100 µM (inactive) | > 100 µM (inactive) | > 100 µM (inactive) | > 100 µM (inactive) | > 100 µM (inactive) | > 100 µM (inactive) | > 100 µM (inactive) | > 100 µM (inactive) | > 100 µM (inactive) | > 100 µM (inactive) | > 100 µM (inactive) | > 100 µM (inactive) | > 100 µM (inactive) | > 100 µM (inactive) | > 100 µM (inactive) | > 100 µM (inactive) | – | – | –
N#C/C(=C\c1ccncc1)c1csc2ccccc12 | 18.9 µM (inactive) | 25 µM (inactive) | 28 µM (inactive) | 23.8 µM (inactive) | – | 20.4 µM (inactive) | – | 27.7 µM (inactive) | 20.9 µM (inactive) | 34.1 µM (inactive) | 18.5 µM (inactive) | 26.4 µM (inactive) | 26.5 µM (inactive) | 17.2 µM (inactive) | 27.4 µM (inactive) | 16.8 µM (inactive) | 26 µM (inactive) | 15.1 µM (inactive) | 31.8 µM (inactive) | 24
COc1cc(C2C(Cl)C(=O)N2NC(=O)c2ccccc2O)ccc1O (stereo not drawn) | – | – | > 100 µM (inactive) | – | > 100 µM (inactive) | > 100 µM (inactive) | > 100 µM (inactive) | 0.0612 µM (active) | – | > 100 µM (inactive) | > 100 µM (inactive) | > 100 µM (inactive) | – | > 100 µM (inactive) | – | > 100 µM (inactive) | > 100 µM (inactive) | > 100 µM (inactive) | > 100 µM (inactive) | > 100

Reference: ChEMBL document CHEMBL1201862, “PubChem BioAssay data set” (2004)
